Experimental findings from ChEMBL document CHEMBL1201862, “PubChem BioAssay data set” (2004) are described below.

Assay [1] deals with Melanin-concentrating hormone receptor 1 (Homo sapiens, UniProt Q99705). Nature of the assay: Late-stage fluorescence-based counterscreen for antagonists of the G-protein coupled receptor 7 (GPR7): cell-based dose response assay to identify antagonists of the melanin-concentrating hormone receptor 1 (MCHR1) Set 5. It counts as functional. (In general: The purpose of a counterscreen is to sort out artefacts and off-target activity.)
Chain of Melanin-concentrating hormone receptor 1 (Q99705 whole entry): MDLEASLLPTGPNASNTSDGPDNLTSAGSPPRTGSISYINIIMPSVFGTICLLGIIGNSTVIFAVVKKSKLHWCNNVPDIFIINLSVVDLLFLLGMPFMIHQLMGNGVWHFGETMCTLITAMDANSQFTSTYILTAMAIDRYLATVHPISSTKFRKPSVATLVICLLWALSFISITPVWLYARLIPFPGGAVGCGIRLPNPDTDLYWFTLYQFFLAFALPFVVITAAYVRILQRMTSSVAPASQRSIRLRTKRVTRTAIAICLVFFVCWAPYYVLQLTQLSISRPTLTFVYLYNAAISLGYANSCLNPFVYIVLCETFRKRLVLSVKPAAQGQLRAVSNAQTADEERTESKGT

Assay [2] addresses T1, Luciferin 4-monooxygenase (Photinus pyralis, UniProt P08659). Nature of the assay: inhibition of purified Photinus pyralis luciferase – biochemical, luminescence, dose response (AID 1891).
A short description of assay [3]: Luminescence Cell-Based Dose Confirmation HTS to Identify Inhibitors of Platelet Dense Granule Release. [Related pubchem assays: 1663 (Primary HTS), 1678 (Summary of Project)]. It is filed as functional.
Assay [4] addresses Cyclin-dependent kinase 5/CDK5 activator 1 (Homo sapiens, UniProt Q00535). Nature of the assay: blockade of human CDK5 activity – biochemical, cherry-picked samples, set 2, dose response (AID 504545).
The target in assay [5] is T1, Luciferin 4-monooxygenase. Nature of the assay: inhibition of purified Photinus pyralis luciferase – biochemical, dry powder samples, plate reader, dose response (AID 588451).
The subject of assay [6] is H4. Nature of the assay: Amyloid Precursor 5' UTR neuroblastoma cell reporter line Measured in Cell-Based System Using Plate Reader - 2078-04_Inhibitor_Dose_DryPowder_Activity. [Related pubchem assays (depositor defined):AID488894]. It counts as functional. Conditions: Homo sapiens.
The test system of assay [7] is H4. Nature of the assay: Inhibitors of Prion Protein 5' UTR mRNA Measured in Cell-Based System Using Plate Reader - 2078-01_Inhibitor_Dose_DryPowder_Activity. [Related pubchem assays (depositor defined):AID488894]. It counts as functional. Conditions: Homo sapiens.
The target of the next assay is Paired box protein Pax-8 (Homo sapiens, UniProt Q06710). Nature of the assay: PAX8 transcriptional activity inhibition in RMG-I – RMG-I cells, luciferase, cherry-pick, dose response (AID 687027).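 Further: luciferase reporter driven by Pax8 target thyroperoxidase promoter measured by SteadyGlo luminescence.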 It is filed as functional, cell-based.
Chain of Paired box protein Pax-8 (Q06710 whole entry): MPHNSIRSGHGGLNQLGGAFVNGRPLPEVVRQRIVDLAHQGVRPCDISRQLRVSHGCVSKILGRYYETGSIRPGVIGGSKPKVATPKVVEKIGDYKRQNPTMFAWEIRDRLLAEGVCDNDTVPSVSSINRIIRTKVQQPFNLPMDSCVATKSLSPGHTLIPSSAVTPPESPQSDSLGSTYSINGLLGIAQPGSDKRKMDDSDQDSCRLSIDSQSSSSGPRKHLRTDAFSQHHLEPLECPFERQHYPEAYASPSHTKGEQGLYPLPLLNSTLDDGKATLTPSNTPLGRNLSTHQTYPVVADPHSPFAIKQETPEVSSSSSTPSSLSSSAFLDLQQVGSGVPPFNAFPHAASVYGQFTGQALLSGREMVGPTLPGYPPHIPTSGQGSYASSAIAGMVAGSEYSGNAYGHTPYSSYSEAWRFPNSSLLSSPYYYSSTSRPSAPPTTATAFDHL
Assay [8] is described as follows: general cell-killing toxicity readout – plate reader, dry powder samples, cytotoxicity control for PAX8 inhibitor project, dose response (AID 743021). It counts as functional, cell-based.
In a further assay the target is Nonstructural protein 1 (Influenza A virus, UniProt Q194T2). It counts as functional, Influenza A virus (A/California/07/2009(H1N1)).
Chain of Nonstructural protein 1 (Q194T2 whole entry): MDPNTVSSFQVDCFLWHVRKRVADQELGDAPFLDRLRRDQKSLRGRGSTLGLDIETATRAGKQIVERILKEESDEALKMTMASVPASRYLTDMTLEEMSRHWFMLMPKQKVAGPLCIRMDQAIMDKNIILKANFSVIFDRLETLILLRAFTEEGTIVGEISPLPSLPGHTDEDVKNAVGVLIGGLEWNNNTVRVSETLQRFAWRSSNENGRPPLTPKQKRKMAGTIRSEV
Assay [9] deals with Protein disulfide-isomerase (Homo sapiens, UniProt P07237). Nature of the assay: inhibition of PDI-driven insulin aggregation – biochemical, turbidity, absorbance, cherry-picked samples, dose response (AID 602350). It is filed as functional.
Chain of Protein disulfide-isomerase (P07237 whole entry): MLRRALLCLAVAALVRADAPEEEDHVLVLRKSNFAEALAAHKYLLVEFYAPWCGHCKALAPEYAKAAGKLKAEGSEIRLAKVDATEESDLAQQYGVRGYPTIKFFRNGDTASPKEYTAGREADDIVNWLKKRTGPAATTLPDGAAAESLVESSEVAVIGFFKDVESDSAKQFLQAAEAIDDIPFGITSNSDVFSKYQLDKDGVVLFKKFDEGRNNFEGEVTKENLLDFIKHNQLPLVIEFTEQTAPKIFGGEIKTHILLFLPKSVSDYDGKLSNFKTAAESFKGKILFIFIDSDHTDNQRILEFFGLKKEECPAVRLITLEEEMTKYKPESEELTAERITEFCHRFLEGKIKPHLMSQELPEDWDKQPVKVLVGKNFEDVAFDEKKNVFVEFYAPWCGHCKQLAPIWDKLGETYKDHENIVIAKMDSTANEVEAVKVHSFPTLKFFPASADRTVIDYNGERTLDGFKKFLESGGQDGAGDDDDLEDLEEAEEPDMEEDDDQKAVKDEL
A further assay has as its target Protein S100-A4 (Homo sapiens, UniProt P26447). Nature of the assay: human S100A4 peptide interaction inhibition curves – biochemical, fluorescence polarization, cherry-picked hits, dose response (AID 687001). It is filed as functional. In general terms: In fluorescence polarisation assays a small probe gives low polarisation when free and higher when bound to something large.

The target of a further assay is ELAV-like protein 1 (Homo sapiens, UniProt Q15717). Nature of the assay: Identify HuR specific inhibitors. It counts as functional.
Chain of ELAV-like protein 1 (Q15717 whole entry): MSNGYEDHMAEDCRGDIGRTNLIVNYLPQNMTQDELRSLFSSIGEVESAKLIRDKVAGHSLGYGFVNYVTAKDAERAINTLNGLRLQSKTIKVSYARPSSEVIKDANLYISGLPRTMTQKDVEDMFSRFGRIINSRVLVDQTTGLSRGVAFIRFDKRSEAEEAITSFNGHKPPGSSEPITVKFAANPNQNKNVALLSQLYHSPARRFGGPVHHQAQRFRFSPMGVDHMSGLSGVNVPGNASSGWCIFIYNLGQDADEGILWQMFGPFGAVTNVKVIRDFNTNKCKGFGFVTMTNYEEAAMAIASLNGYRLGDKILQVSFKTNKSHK
The target of a further assay is T2, Caspase-3 (Homo sapiens, UniProt P42574).
T2 sequence (P42574 whole entry): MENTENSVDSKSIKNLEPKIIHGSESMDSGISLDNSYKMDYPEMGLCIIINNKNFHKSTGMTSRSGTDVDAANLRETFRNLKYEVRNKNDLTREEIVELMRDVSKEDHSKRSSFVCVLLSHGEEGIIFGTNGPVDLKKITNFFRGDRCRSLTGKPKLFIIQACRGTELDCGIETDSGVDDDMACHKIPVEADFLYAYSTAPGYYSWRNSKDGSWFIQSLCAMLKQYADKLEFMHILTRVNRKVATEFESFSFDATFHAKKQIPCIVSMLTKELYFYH
Nature of the assay: inhibition of recombinant caspase-3 activity – biochemical, luminescence, set 2, selectivity assay for SENP protease inhibitor project, SAR follow-up (AID 588599). It is filed as functional.

For assay [10], the target named is T3, Sentrin-specific protease 8 (Homo sapiens, UniProt Q96LD8).
T3 sequence (Q96LD8 whole entry): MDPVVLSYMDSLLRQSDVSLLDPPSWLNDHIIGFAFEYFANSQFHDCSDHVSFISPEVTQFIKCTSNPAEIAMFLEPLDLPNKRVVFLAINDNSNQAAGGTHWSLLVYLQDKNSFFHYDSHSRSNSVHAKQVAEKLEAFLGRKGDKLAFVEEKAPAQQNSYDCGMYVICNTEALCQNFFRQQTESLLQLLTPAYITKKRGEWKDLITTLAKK
Nature of the assay: inhibition of sentrin protease 8 – biochemical, luminescence, set 2, SAR follow-up (AID 588601). It is filed as functional.

The target in assay [11] is T4, Sentrin-specific protease 7 (Homo sapiens, UniProt Q9BQF6).
T4 sequence (Q9BQF6 whole entry): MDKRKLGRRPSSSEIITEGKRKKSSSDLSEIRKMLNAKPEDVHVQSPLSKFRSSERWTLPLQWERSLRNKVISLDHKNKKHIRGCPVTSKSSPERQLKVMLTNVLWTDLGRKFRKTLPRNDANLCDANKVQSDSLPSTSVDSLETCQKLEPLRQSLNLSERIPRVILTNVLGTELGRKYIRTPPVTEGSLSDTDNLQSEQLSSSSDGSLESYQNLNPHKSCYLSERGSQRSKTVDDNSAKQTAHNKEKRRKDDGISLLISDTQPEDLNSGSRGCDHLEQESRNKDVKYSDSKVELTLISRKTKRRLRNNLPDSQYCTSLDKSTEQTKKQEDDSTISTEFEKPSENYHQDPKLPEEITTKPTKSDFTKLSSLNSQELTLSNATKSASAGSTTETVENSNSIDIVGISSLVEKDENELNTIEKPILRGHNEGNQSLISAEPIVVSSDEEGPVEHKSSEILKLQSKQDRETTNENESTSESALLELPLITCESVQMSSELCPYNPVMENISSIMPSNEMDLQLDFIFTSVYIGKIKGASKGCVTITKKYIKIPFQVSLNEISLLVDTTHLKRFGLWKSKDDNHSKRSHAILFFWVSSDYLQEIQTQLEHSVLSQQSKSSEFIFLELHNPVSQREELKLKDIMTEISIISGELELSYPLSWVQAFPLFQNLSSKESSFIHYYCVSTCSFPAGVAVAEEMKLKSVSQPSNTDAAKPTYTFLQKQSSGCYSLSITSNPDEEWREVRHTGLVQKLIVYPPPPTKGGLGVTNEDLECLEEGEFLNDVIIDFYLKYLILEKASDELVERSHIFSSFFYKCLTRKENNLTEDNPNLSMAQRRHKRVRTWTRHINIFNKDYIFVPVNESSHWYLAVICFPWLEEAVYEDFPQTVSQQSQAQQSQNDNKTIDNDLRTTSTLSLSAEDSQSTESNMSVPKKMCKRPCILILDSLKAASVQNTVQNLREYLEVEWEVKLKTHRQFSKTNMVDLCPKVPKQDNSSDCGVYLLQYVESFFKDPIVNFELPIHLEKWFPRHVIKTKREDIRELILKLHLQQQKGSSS
Nature of the assay: inhibition of human SENP7 cleavage activity – biochemical, luminescence, set 2, SAR follow-up (AID 588600). It is filed as functional.

The target of assay [12] is T5, Sentrin-specific protease 6 (Homo sapiens, UniProt Q9GZR1).
T5 sequence (Q9GZR1 whole entry): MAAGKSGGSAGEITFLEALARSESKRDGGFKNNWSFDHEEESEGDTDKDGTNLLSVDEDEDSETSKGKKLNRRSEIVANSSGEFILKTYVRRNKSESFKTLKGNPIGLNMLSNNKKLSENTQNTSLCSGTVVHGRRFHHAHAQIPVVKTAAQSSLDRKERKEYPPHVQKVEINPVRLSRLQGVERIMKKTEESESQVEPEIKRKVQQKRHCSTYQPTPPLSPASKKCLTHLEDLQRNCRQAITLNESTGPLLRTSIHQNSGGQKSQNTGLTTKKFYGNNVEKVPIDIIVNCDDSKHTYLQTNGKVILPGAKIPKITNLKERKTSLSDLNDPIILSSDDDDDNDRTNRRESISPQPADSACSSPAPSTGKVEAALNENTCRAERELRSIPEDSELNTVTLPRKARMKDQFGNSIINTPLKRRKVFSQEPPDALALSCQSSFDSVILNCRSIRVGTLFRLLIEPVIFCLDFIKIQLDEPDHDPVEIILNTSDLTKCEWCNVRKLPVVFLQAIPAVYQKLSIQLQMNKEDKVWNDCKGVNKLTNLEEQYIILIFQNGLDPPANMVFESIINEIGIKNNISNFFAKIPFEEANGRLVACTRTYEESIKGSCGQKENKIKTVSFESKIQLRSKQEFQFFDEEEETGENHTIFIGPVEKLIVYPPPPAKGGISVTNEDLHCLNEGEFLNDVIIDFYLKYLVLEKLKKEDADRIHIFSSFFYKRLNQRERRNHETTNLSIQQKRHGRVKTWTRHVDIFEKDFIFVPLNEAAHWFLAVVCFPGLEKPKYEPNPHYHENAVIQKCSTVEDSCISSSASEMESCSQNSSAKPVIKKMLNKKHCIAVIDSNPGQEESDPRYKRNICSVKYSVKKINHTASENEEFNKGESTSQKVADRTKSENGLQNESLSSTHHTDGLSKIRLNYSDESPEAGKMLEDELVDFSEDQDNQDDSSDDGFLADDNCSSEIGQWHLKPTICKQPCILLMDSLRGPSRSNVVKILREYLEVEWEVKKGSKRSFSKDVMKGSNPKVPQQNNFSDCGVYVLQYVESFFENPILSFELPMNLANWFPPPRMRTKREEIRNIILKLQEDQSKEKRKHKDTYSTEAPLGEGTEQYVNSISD
Nature of the assay: inhibition of human SENP6 catalytic domain – biochemical, luminescence, set 2, SAR follow-up (AID 588598). It is filed as functional.

Activity calls are given as the source filed them.

T1 sequence (P08659 whole entry): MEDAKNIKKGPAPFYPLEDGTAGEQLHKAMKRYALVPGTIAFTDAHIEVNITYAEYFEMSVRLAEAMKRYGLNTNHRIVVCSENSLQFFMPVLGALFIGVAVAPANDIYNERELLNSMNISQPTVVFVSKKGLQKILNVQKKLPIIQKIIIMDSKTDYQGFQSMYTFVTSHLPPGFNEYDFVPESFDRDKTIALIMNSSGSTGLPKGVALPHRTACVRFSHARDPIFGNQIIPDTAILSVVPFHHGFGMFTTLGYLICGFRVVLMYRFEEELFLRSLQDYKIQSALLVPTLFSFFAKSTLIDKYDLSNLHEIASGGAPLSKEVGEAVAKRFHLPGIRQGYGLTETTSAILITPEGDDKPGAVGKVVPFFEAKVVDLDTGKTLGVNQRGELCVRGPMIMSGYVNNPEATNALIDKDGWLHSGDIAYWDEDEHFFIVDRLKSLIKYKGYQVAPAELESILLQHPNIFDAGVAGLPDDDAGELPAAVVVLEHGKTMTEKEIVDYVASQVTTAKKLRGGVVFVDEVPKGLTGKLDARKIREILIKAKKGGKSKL
Chain of Protein S100-A4 (P26447 whole entry): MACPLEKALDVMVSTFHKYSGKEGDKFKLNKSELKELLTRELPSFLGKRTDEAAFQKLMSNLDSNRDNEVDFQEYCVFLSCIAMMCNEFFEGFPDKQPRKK
Chain of Cyclin-dependent kinase 5/CDK5 activator 1 (Q00535 whole entry): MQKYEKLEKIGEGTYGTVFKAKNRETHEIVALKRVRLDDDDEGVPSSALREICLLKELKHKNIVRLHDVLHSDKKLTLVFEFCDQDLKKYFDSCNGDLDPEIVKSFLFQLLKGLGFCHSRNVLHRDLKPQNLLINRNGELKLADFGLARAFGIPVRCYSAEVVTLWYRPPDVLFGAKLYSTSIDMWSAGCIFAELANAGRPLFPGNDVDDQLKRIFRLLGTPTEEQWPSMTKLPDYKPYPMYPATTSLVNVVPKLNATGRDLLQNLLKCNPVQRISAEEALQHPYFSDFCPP
Chain of Cyclin-dependent kinase 5/CDK5 activator 1 (Q15078 whole entry, further chain): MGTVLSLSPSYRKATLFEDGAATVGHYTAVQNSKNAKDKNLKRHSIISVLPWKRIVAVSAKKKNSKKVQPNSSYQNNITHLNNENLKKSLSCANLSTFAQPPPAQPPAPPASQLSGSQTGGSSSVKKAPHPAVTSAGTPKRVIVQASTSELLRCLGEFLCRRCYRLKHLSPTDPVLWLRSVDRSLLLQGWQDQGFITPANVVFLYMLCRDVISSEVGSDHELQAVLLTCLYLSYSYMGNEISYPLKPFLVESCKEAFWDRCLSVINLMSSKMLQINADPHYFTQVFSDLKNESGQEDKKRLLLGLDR

Regarding `COc1ccc(Oc2c(Cl)cnn(Cc3ccccc3OC)c2=O)cc1`, the IC50 in [1] is 6.63 µM (active).
For the compound `Cc1ccc(C(=O)O/N=C(\N)c2ccccn2)cc1`, the figures for the EC50 in assay [2] and in assay [3] were 0.994 µM (active) and 1.6 µM (active), respectively. For the same compound, the AC50 is 39 µM (active) in assay [4]; 0.06 µM (active) in assay [5]; 0.244 µM (active) with H4 [6]; 0.731 µM (active) in the assay on H4 [7]; 15.5 µM (active) on Paired box protein Pax-8; 29.9 µM (active) in [8].
`COc1cccc2c1C(=O)c1c(O)c3c(c(O)c1C2=O)CC(O)(C(C)=NO)CC3OC1CC(N)C(O)C(C)O1` (configuration not stated): the concentration for half-maximal inhibition (IC50) is 32 µM (active) on Nonstructural protein 1 and 21.7 µM (active) at ELAV-like protein 1. Further, the AC50 is 16.9 µM (active) in [9] and 0.406 µM (active) at Protein S100-A4.
On to `Cc1ccc2nc(NC(=O)c3cccc(-n4cnnn4)c3)sc2c1`, for which the IC50 (on Caspase-3; in assay [10]; in assay [11]; in assay [12]) was > 99 µM (inactive) in each case.

As usually defined, the IC50 is the concentration that inhibits the measured activity by half. As usually defined, the EC50 is the concentration needed to bring the measured effect to its halfway point. As usually defined, the AC50 is the midpoint of the concentration-response curve, whichever way the signal moves.
